From US9376436B2, “2-(pyridin-2yl)-1, 7-diaza-spiro [4.4] nonane-6-one compound as voltage-gated sodium channels modulators” (CONVERGENCE PHARMACEUTICALS LIMITED, priority 2011, dated 2016)
Structures can show the parent of a compound that is named as a salt. Where two headings read alike, the source gives them in different places.

Target: T1, hNaV1.7 (Homo sapiens, UniProt Q15858)
T1 construct: expressed in transfected cells; host or cells: HEK293
Test: QPatch NaV1.7 assay (whole-cell patch clamp, QPatch16x)
Format: cell-based
Conditions: HEK293-hNaV1.7 cells
Protocol: The compounds of the invention were tested in a QPatch NaV1.7 assay.
HEK293-hNaV1.7 cells were grown in DMEM-F12+10% FBS culture media at 37° C. At a confluency of 50-70% cells were dissociated from culture flasks & triturated to ensure unicellular cell suspension; cell density was measured & adjusted to 2-3×10^6 cells/ml. Recordings were obtained using QPatch16x. The external solution was (in mM): NaCl, 128; KCl, 5; MgCl2, 2; CaCl2, 2; Glucose, 30; HEPES, 15; pH 7.3, 305-315 mOsm. Following seal formation and whole-cell access using internal solution (containing in mM: CsF, 135; EGTA/CsOH, 1/5; HEPES 10; NaCl, 10; pH 7.3, 310-320 mOsM), voltage pulse protocols were applied. Initially a steady state inactivation voltage protocol was used to determine the half-maximal voltage for steady state inactivation (V1/2 SSI). Two holding voltages were used to determine test drug inhibition: −90 mV, where most of the channels are in a closed state; and V1/2 SSI, where half of the channels are inactivated. Currents were elicited […] by stepping to a membrane potential of 0 mV for 20 ms. Four-point cumulative concentration responses were derived by determining the peak current amplitude at each concentration of test drug over 120 second application. Curves were fitted with the Hill equation yielding pIC50 values at −90 mV and V1/2 SSI holding potentials.

[1] = holding voltage V1/2 SSI (half of channels inactivated), read-out: QP Nav1.7 SSI vhalf pIC50 (converted)
[2] = holding voltage −90 mV (most channels closed), read-out: QP Nav1.7 −90 mV pIC50 (converted)

T1 sequence (Q15858 whole entry): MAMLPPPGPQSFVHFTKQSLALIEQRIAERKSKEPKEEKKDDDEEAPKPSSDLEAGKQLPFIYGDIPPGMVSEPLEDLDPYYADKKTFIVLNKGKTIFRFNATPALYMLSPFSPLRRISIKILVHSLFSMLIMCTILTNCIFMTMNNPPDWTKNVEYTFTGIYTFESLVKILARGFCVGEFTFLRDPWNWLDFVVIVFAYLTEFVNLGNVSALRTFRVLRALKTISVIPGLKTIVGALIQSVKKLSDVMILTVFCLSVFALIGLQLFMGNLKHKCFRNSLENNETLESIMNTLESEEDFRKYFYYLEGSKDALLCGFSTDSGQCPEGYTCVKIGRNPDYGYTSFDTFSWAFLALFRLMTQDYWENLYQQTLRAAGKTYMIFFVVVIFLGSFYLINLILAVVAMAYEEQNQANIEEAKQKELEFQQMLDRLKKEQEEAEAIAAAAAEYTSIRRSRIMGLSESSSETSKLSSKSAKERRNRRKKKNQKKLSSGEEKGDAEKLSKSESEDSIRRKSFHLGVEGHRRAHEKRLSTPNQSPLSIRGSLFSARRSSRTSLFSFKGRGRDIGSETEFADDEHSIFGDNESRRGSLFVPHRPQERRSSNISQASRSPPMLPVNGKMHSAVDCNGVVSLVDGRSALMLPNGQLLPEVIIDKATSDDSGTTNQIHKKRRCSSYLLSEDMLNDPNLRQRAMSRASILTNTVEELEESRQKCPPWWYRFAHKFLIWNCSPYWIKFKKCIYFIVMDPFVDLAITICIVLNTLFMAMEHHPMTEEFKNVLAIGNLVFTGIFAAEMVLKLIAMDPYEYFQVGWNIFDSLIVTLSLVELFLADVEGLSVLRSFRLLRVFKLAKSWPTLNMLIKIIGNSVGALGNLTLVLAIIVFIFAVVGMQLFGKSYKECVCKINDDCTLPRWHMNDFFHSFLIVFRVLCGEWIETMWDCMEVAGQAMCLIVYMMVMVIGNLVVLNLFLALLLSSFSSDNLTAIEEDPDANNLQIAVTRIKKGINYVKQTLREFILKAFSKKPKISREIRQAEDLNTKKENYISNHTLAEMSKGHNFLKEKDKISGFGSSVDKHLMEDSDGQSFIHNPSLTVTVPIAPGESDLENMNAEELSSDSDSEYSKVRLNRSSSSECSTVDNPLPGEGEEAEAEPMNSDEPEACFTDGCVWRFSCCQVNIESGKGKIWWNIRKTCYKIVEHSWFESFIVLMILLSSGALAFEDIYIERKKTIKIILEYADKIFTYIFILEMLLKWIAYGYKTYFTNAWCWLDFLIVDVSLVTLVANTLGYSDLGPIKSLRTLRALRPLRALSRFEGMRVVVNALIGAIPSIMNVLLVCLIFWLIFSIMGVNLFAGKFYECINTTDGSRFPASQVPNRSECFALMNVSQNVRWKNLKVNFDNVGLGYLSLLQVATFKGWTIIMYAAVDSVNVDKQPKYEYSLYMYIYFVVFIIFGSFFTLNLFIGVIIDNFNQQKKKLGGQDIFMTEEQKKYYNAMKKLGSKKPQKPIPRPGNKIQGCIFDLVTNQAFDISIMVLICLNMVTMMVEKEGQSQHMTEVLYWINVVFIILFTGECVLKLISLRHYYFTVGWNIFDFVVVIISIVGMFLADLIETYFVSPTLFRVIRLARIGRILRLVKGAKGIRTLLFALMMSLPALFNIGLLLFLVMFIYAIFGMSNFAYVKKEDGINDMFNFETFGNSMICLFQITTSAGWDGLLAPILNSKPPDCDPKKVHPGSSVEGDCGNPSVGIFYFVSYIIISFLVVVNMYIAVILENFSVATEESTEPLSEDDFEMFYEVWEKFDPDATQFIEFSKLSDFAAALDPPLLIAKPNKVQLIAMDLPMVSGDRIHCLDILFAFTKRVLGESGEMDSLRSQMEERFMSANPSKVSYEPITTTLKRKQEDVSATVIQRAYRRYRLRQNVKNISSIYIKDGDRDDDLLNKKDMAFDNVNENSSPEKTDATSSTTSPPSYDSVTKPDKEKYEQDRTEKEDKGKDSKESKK

| IC50 [1] [µM] | IC50 [2] [µM] | QP Nav1.7 SSI vhalf pIC50 (holding voltage V1/2 SSI (half of channels inactivated)) | Compound |
| --- | --- | --- | --- |
| 1.58 | 31.6 |  | CN1CC[C@@]2(CC(F)(F)C(c3cc(-c4ccc(C(F)(F)F)cc4)ccn3)N2)C1=O (mixture of isomers) [Example 240, (5R)-3,3-Difluoro-7-methyl-2-[4-[4-(trifluoromethyl)phenyl]-2-pyridyl]-1,7-diazaspiro[4.4]nonan-6-one hydrochloride] |
| 2.51 | 20 |  | CCOc1ccc(F)c(-c2cc(C)nc(C3CCC4(CCN(C)C4=O)N3)c2C)c1 (mixture of isomers) [Example 256, 2-[4-(5-Ethoxy-2-fluoro-phenyl)-3,6-dimethyl-2-pyridyl]-7-methyl-1,7-diazaspiro[4.4]nonan-6-one hydrochloride] |
| 2 | 50.1 |  | CN1CC[C@@]2(CC(F)C(c3cc(-c4ccc(C(F)(F)F)cc4)ccn3)N2)C1=O (single isomer, unassigned) [Example 238, hydrochloride] |
| 15.8 | 251 |  | CN1CC[C@@]2(CC(F)C(c3cc(-c4ccc(C(F)(F)F)cc4)ccn3)N2)C1=O (single isomer, unassigned) [Example 239] |
| 1.26 | 20 |  | CCOc1ccc(F)c(-c2cc(OC)nc([C@H]3CC[C@]4(CCN(C)C4=O)N3)c2)c1 (single isomer, unassigned) [Example 247, hydrochloride] |
| 5.01 | 31.6 |  | CCOc1ccc(F)c(-c2cc(OC)nc([C@@H]3CC[C@]4(CCN(C)C4=O)N3)c2)c1 (single isomer, unassigned) [Example 248] |
|  |  | 5.5 | CN1CC[C@@]2(CC[C@H](c3cc(-c4cccc(OC(F)(F)F)c4)ccn3)N2)C1=O.Cl [Example 1, (2R,5S)-7-Methyl-2-[4-[3-(trifluoromethoxy)phenyl]-2-pyridyl]-1,7-diazaspiro[4.4]nonan-6-one hydrochloride] |
| 20 | 200 |  | Cc1cc(C)c(-c2ccnc([C@H]3CC[C@@]4(CCN(C)C4=O)N3)c2)c(C)c1 [Example 2, (2R,5S)-7-Methyl-2-[4-(2,4,6-trimethylphenyl)-2-pyridyl]-1,7-diazaspiro-[4.4]nonan-6-one hydrochloride] |
| 7.94 | 63.1 |  | CN1CC[C@@]2(CC[C@H](c3cc(-c4ccccc4OC(F)(F)F)ccn3)N2)C1=O [Example 3, (2R,5S)-7-Methyl-2-[4-[2-(trifluoromethoxy)-phenyl]-2-pyridyl]-1,7-diazaspiro-[4.4]nonan-6-one hydrochloride] |
| 12.6 | 200 |  | CCOc1ccc(F)cc1-c1ccnc([C@H]2CC[C@@]3(CCN(C)C3=O)N2)c1 [Example 4, (2R,5S)-2-[4-(2-Ethoxy-5-fluoro-phenyl)-pyridin-2-yl]-7-methyl-1,7-diaza-spiro[4.4]nonan-6-one hydrochloride] |
| 3.98 | 25.1 |  | CN1CC[C@@]2(CC[C@H](c3cc(-c4ccc(OC(F)(F)F)cc4)ccn3)N2)C1=O [Example 5, (2R,5S)-7-Methyl-2-[4-(4-trifluoro-methoxy-phenyl)-pyridin-2-yl]-1,7-diaza-spiro[4.4]nonan-6-one hydrochloride] |
| 31.6 | 158 |  | CN1CC[C@@]2(CC[C@H](c3cc(-c4ccccc4)ccn3)N2)C1=O [Example 6, (2R,5S)-7-Methyl-2-(4-phenyl-pyridin-2-yl)-1,7-diaza-spiro[4.4]nonan-6-one hydrochloride] |
| 31.6 | 100 |  | CN1CC[C@@]2(CC[C@H](c3cc(-c4ccccc4C(F)(F)F)ccn3)N2)C1=O [Example 7, (2R,5S)-7-Methyl-2-[4-[2-(trifluoro-methyl)phenyl]-2-pyridyl]-1,7-diazaspiro[4.4]nonan-6-one hydrochloride] |
| 0.794 | 10 |  | CCOc1ccc(F)c(-c2ccnc([C@H]3CC[C@@]4(CCN(C)C4=O)N3)c2)c1 [Example 8, (2R,5S)-2-[4-(5-Ethoxy-2-fluoro-phenyl)-2-pyridyl]-7-methyl-1,7-diazaspiro[4.4]nonan-6-one hydrochloride] |
| 63.1 | 1000 |  | CN1CC[C@@]2(CC[C@H](c3cc(-c4ccc(F)cc4F)ccn3)N2)C1=O [Example 9, (2R,5S)-2-[4-(2,4-Difluorophenyl)-2-pyridyl]-7-methyl-1,7-diazaspiro[4.4]nonan-6-one hydrochloride] |
| 50.1 | 3980 |  | COc1ccc(F)cc1-c1ccnc([C@H]2CC[C@@]3(CCN(C)C3=O)N2)c1 [Example 10, (2R,5S)-2-[4-(5-Fluoro-2-methoxy-phenyl)-2-pyridyl]-7-methyl-1,7-diazaspiro[4.4]nonan-6-one hydrochloride] |
| 25.1 | 200 |  | CN1CC[C@@]2(CC[C@H](c3cc(-c4ccc(F)c(F)c4)ccn3)N2)C1=O [Example 11, (2R,5S)-2-[4-(3,4-Difluorophenyl)-2-pyridyl]-7-methyl-1,7-diazaspiro[4.4]nonan-6-one hydrochloride] |
| 10 | 50.1 |  | CN1CC[C@@]2(CC[C@H](c3cc(-c4ccc(C(F)(F)F)cc4F)ccn3)N2)C1=O [Example 12, (2R,5S)-2-[4-[2-Fluoro-4-(trifluoromethyl)phenyl]-2-pyridyl]-7-methyl-1,7-diazaspiro[4.4]nonan-6-one hydrochloride] |
| 6.31 | 25.1 |  | CN1CC[C@@]2(CC[C@H](c3cc(-c4ccc(Cl)cc4)ccn3)N2)C1=O [Example 13, (2R,5S)-2-[4-(4-Chlorophenyl)-2-pyridyl]-7-methyl-1,7-diazaspiro[4.4]nonan-6-one hydrochloride] |
| 10 | 63.1 |  | Cc1c(-c2ccc(C(F)(F)F)cc2)ccnc1[C@H]1CC[C@]2(CCN(C)C2=O)N1 [Example 14, (2R,5R)-7-Methyl-2-[3-methyl-4-[4-(trifluoromethyl)phenyl]-2-pyridyl]-1,7-diazaspiro[4.4]nonan-6-one hydrochloride] |
| 6.31 | 25.1 |  | Cc1c(-c2ccc(C(F)(F)F)cc2)ccnc1[C@@H]1CC[C@]2(CCN(C)C2=O)N1 [Example 15, (2S,5R)-7-Methyl-2-[3-methyl-4-[4-(trifluoromethyl)phenyl]-2-pyridyl]-1,7-diazaspiro[4.4]nonan-6-one hydrochloride] |
| 12.6 | 100 |  | Cc1c(-c2ccc(C(F)(F)F)cc2)ccnc1[C@@H]1CC[C@@]2(CCN(C)C2=O)N1 [Example 16, (2S,5S)-7-Methyl-2-[3-methyl-4-[4-(trifluoromethyl)phenyl]-2-pyridyl]-1,7-diazaspiro[4.4]nonan-6-one hydrochloride] |
| 3.16 | 20 |  | Cc1c(-c2ccc(C(F)(F)F)cc2)ccnc1[C@H]1CC[C@@]2(CCN(C)C2=O)N1 [Example 17, (2R,5S)-7-Methyl-2-[3-methyl-4-[4-(trifluoromethyl)phenyl]-2-pyridyl]-1,7-diazaspiro[4.4]nonan-6-one hydrochloride] |
| 31.6 | 794 |  | Cc1c(-c2ccc(F)cc2)ccnc1[C@@H]1CC[C@]2(CCN(C)C2=O)N1 [Example 18, (2S,5R)-7-Methyl-2-[3-methyl-4-[4-fluorophenyl]-2-pyridyl]-1,7-diazaspiro[4.4]nonan-6-one hydrochloride] |
| 6.31 | 50.1 |  | Cc1c(-c2ccc(F)cc2)ccnc1[C@H]1CC[C@@]2(CCN(C)C2=O)N1 [Example 19, (2R,5S)-2-[4-(4-Fluorophenyl)-3-methyl-2-pyridyl]-7-methyl-1,7-diazaspiro[4.4]nonan-6-one hydrochloride] |
| 31.6 | 316 |  | Cc1c(-c2ccc(F)cc2)ccnc1[C@@H]1CC[C@@]2(CCN(C)C2=O)N1 [Example 20, (2S,5S)-2-[4-(4-Fluorophenyl)-3-methyl-2-pyridyl]-7-methyl-1,7-diazaspiro[4.4]nonan-6-one hydrochloride] |
| 31.6 | 794 |  | Cc1cc(-c2cc(C(F)(F)F)ccc2C#N)cc([C@@H]2CC[C@]3(CCN(C)C3=O)N2)n1 [Example 21, 2-[2-Methyl-6-[(2S,5R)-7-methyl-6-oxo-1,7-diazaspiro[4.4]-nonan-2-yl]-4-pyridyl]-4-(trifluoromethyl)-benzonitrile hydrochloride] |
| 158 | 1000 |  | Cc1cc(-c2cc(C(F)(F)F)ccc2C#N)cc([C@H]2CC[C@]3(CCN(C)C3=O)N2)n1 [Example 22, 2-[2-Methyl-6-[(2R,5R)-7-methyl-6-oxo-1,7-diazaspiro[4.4]-nonan-2-yl]-4-pyridyl]-4-(trifluoromethyl)-benzonitrile hydrochloride] |
| 79.4 | 631 |  | Cc1cc(-c2cc(C(F)(F)F)ccc2C#N)cc([C@H]2CC[C@@]3(CCN(C)C3=O)N2)n1 [Example 23, 2-[2-Methyl-6-[(2R,5S)-7-methyl-6-oxo-1,7-diazaspiro[4.4]nonan-2-yl]-4-pyridyl]-4-(trifluoromethyl)benzonitrile hydrochloride] |
